Laboratory results from patent US20260102383A1, “LPAR1 Inhibitors” (AbbVie Inc., priority 2024, published 2026).

Biological target: T1, human LPAR1 (Homo sapiens, UniProt Q92633)
T1 construct: host or cells: TangoEDG2-bla U2OS cells
Test: Arrestin assay (Arrestin Reporter EDG2-bla U2OS), inhibition of LPA-stimulated signal
Type: cell-based
Settings: TangoEDG2-bla U2OS cells expressing human LPAR1; 0.25 μM LPA; read-out: Arrestin Reporter EDG2-bla U2OS Human Merged IC50
Outline: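 IC50 comes from a variable-slope 4-parameter fit of % inhibition, calculated from the beta-lactamase FRET ratio (emission 460/530 nm, excitation 409 nm, 2 h development at RT). Compounds, 10 μM down to 0.00006 μM in 3-fold steps, were given 1 h before 0.25 μM final LPA for 3 h in TangoEDG2-bla U2OS cells.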

T1 sequence (Q92633 whole entry): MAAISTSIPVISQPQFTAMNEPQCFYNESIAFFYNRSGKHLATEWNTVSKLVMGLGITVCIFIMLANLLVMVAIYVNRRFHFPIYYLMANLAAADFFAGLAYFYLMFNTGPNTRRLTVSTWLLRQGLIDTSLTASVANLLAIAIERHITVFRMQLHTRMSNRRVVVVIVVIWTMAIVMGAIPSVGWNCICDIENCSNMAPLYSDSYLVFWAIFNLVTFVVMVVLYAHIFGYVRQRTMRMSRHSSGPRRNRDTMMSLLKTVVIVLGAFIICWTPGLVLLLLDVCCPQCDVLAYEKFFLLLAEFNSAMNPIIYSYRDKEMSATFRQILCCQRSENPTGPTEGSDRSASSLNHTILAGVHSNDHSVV

Row | Compound | IC50 [nM]
1 | CO[C@]1(C(=O)O)C[C@@H](N2CCC(C(=O)Nc3ccc(Cl)cc3OC(F)F)(n3nccc3C(C)C)CC2)C1 (single isomer, unassigned) [Compound 194, (1r,3r)-3-[4-[[4-chloro-2-(difluoromethoxy)phenyl]carbamoyl]-4-(5-isopropylpyrazol-1-yl)-1-piperidyl]-1-methoxy-cyclobutanecarboxylic acid] | 90.6
2 | CC(C)c1ccnn1C1(C(=O)Nc2ccc(Cl)cc2OC(F)F)CCN(Cc2nc(C(=O)O)cs2)CC1 [Compound 37, 2-[[4-[[4-chloro-2-(difluoromethoxy)phenyl]carbamoyl]-4-(5-isopropylpyrazol-1-yl)-1-piperidyl]methyl]thiazole-4-carboxylic acid] | 14.6
3 | CC(C)c1ccnn1C1(C(=O)Nc2ccc(Cl)cc2OC(F)F)CCN(CC(C(=O)O)N2CCOCC2)CC1 (stereo not shown) [Compound 116, 3-[4-[[4-chloro-2-(difluoromethoxy)phenyl]carbamoyl]-4-(5-isopropylpyrazol-1-yl)-1-piperidyl]-2-morpholino-propanoic acid] | 129
4 | CCOC(=O)N1CCC(CN2CCC(C(=O)Nc3ccc(Cl)cc3OC(F)F)(n3nccc3C(C)C)CC2)(C(=O)O)CC1 [Compound 6, 4-[[4-[[4-chloro-2-(difluoromethoxy)phenyl]carbamoyl]-4-(5-isopropylpyrazol-1-yl)-1-piperidyl]methyl]-1-ethoxycarbonyl-piperidine-4-carboxylic acid] | 24.7
5 | CC(C)c1ccnn1C1(C(=O)Nc2ccc(Cl)cc2OC(F)F)CCN(CC2(C(=O)O)CCC(=O)CC2)CC1 [Compound 27, 1-[[4-[[4-chloro-2-(difluoromethoxy)phenyl]carbamoyl]-4-(5-isopropylpyrazol-1-yl)-1-piperidyl]methyl]-4-oxo-cyclohexanecarboxylic acid] | 14.2
6 | CC(C)c1ccnn1C1(C(=O)Nc2ccc(Cl)cc2OC(F)F)CCN(C[C@@H](C(=O)O)C2COCCOC2)CC1 [Compound 215, (2S)-3-[4-[[4-chloro-2-(difluoromethoxy)phenyl]carbamoyl]-4-(5-isopropylpyrazol-1-yl)-1-piperidyl]-2-(1,4-dioxepan-6-yl)propanoic acid] | 18.5
7 | CC(C)c1ccnn1C1(C(=O)Nc2ccc(Cl)cc2OC(F)F)CCN(C[C@@H](C(=O)O)[C@H]2CCOC2)CC1 (single isomer, unassigned) [Compound 149] | 34.5
8 | CC(C)c1ccnn1C1(C(=O)Nc2ccc(Cl)cc2OC(F)F)CCN(CC2(C(=O)O)CCS(=O)(=O)CC2)CC1 [Compound 65, 4-[[4-[[4-chloro-2-(difluoromethoxy)phenyl]carbamoyl]-4-(5-isopropylpyrazol-1-yl)-1-piperidyl]methyl]-1,1-dioxo-thiane-4-carboxylic acid] | 9.87
9 | CC(C)c1ccnn1C1(C(=O)Nc2ccc(Cl)cc2OC(F)F)CCN(CC(=O)O)CC1 [Compound 1, 2-[4-[[4-chloro-2-(difluoromethoxy)phenyl]carbamoyl]-4-(5-isopropylpyrazol-1-yl)-1-piperidyl]acetic acid] | 54.8
10 | CC(C)c1ccnn1C1(C(=O)Nc2ccc(Cl)cc2OC(F)F)CCN(CC2(C(=O)O)CCCC2)CC1 [Compound 12, 1-[[4-[[4-chloro-2-(difluoromethoxy)phenyl]carbamoyl]-4-(5-isopropylpyrazol-1-yl)-1-piperidyl]methyl] cyclopentanecarboxylic acid] | 11.4
11 | COCOCC(CN1CCC(C(=O)Nc2ccc(Cl)cc2OC(F)F)(n2nccc2C(C)C)CC1)C(=O)O (stereo not shown) [Compound 135, 2-[[4-[[4-chloro-2-(difluoromethoxy)phenyl]carbamoyl]-4-(5-isopropylpyrazol-1-yl)-1-piperidyl]methyl]-3-(methoxymethoxy) propanoic acid] | 76.9
12 | CC(C)c1ccnn1C1(C(=O)Nc2ccc(Cl)cc2OC(F)F)CCN(C[C@H](C(=O)O)c2cccnc2)CC1 [Compound 25, (2R)-3-[4-[[4-chloro-2-(difluoromethoxy)phenyl]carbamoyl]-4-(5-isopropylpyrazol-1-yl)-1-piperidyl]-2-(3-pyridyl)propanoic acid] | 28
13 | CC(C)c1ccnn1C1(C(=O)Nc2ccc(Cl)cc2OC(F)F)CCN(C[C@@](C)(O)C(=O)O)CC1 [Compound 235, (2R)-3-[4-[[4-chloro-2-(difluoromethoxy)phenyl]carbamoyl]-4-(5-isopropylpyrazol-1-yl)-1-piperidyl]-2-hydroxy-2-methyl-propanoic acid] | 20.9
14 | CC[C@@H](CN1CCC(C(=O)Nc2ccc(Cl)cc2OC(F)F)(n2nccc2C(C)C)CC1)C(=O)O [Compound 126, (2S)-2-[[4-[[4-chloro-2-(difluoromethoxy)phenyl]carbamoyl]-4-(5-isopropylpyrazol-1-yl)-1-piperidyl]methyl] butanoic acid] | 22.1
15 | COc1cnn(CC(CN2CCC(C(=O)Nc3ccc(Cl)cc3OC(F)F)(n3nccc3C(C)C)CC2)C(=O)O)c1 (stereo not shown) [Compound 193, 2-[[4-[[4-chloro-2-(difluoromethoxy)phenyl]carbamoyl]-4-(5-isopropylpyrazol-1-yl)-1-piperidyl]methyl]-3-(4-methoxypyrazol-1-yl)propanoic acid] | 31.3
16 | CC(C)c1ccnn1C1(C(=O)Nc2ccc(Cl)cc2OC(F)F)CCN(C[C@](C)(O)C(=O)O)CC1 [Compound 236, (2S)-3-[4-[[4-chloro-2-(difluoromethoxy)phenyl]carbamoyl]-4-(5-isopropylpyrazol-1-yl)-1-piperidyl]-2-hydroxy-2-methyl-propanoic acid] | 64.8
17 | CC(C)c1ccnn1C1(C(=O)Nc2ccc(Cl)cc2OC(F)F)CCN(C[C@H](C)C(=O)O)CC1 [Compound 87, (2S)-3-[4-[[4-chloro-2-(difluoromethoxy)phenyl]carbamoyl]-4-(5-isopropylpyrazol-1-yl)-1-piperidyl]-2-methyl-propanoic acid] | 32.3
18 | CC(C)c1ccnn1C1(C(=O)Nc2ccc(Cl)cc2OC(F)F)CCN(C[C@]2(C(=O)O)CCOC(C)(C)C2)CC1 [Compound 173, (4S)-4-[[4-[[4-chloro-2-(difluoromethoxy)phenyl]carbamoyl]-4-(5-isopropylpyrazol-1-yl)-1-piperidyl]methyl]-2,2-dimethyl-tetrahydropyran-4-carboxylic acid] | 31
19 | COC(=O)CC(=O)N1CCC(CN2CCC(C(=O)Nc3ccc(Cl)cc3OC(F)F)(n3nccc3C(C)C)CC2)(C(=O)O)CC1 [Compound 9, 4-[[4-[[4-chloro-2-(difluoromethoxy)phenyl]carbamoyl]-4-(5-isopropylpyrazol-1-yl)-1-piperidyl]methyl]-1-(3-methoxy-3-oxo-propanoyl)piperidine-4-carboxylic acid] | 128

Now from value to compound:

Row | IC50 [nM] | Compound
20 | 4.5 | CC(C)c1ccnn1C1(C(=O)Nc2ccc(Cl)cc2OC(F)F)CCN(CC2(C(=O)O)Cc3ccccc3C2)CC1 [Compound 63, 2-[[4-[[4-chloro-2-(difluoromethoxy)phenyl]carbamoyl]-4-(5-isopropylpyrazol-1-yl)-1-piperidyl]methyl]indane-2-carboxylic acid]
21 | 6.55 | CC(C)c1ccnn1C1(C(=O)Nc2ccc(Cl)cc2OC(F)F)CCN(CC2(C(=O)O)CC3(CCC3)C2)CC1 [Compound 31, 2-[[4-[[4-chloro-2-(difluoromethoxy)phenyl]carbamoyl]-4-(5-isopropylpyrazol-1-yl)-1-piperidyl]methyl]spiro[3.3] heptane-2-carboxylic acid]
22 | 65.6 | CC(C)c1ccnn1C1(C(=O)Nc2ccc(Cl)cc2OC(F)F)CCN([C@H]2CC[C@H](C(=O)O)OC2)CC1 (single isomer, unassigned) [Compound 192]
23 | 55.8 | CC(C)c1ccnn1C1(C(=O)Nc2ccc(Cl)cc2OC(F)F)CCN([C@H]2C[C@](C(=O)O)(C(F)(F)F)C2)CC1 [Compound 108, (1r,3r)-3-[4-[[4-chloro-2-(difluoromethoxy)phenyl]carbamoyl]-4-(5-isopropylpyrazol-1-yl)-1-piperidyl]-1-(trifluoromethyl)cyclobutanecarboxylic acid]
24 | 31.9 | CC(C)c1ccnn1C1(C(=O)Nc2ccc(Cl)cc2OC(F)F)CCN([C@H]2C[C@@]3(C[C@@H]3C(=O)O)C2)CC1 [Compound 127, (1S,3r,5R)-5-[4-[[4-chloro-2-(difluoromethoxy)phenyl]carbamoyl]-4-(5-isopropylpyrazol-1-yl)-1-piperidyl]spiro[2.3] hexane-2-carboxylic acid]
25 | 10.8 | CC(C)c1ccnn1C1(C(=O)Nc2ccc(Cl)cc2OC(F)F)CCN(CC2(C(=O)O)CC=CC2)CC1 [Compound 74, 1-[[4-[[4-chloro-2-(difluoromethoxy)phenyl]carbamoyl]-4-(5-isopropylpyrazol-1-yl)-1-piperidyl]methyl]cyclopent-3-ene-1-carboxylic acid]
26 | 29.8 | CC(C)c1ccnn1C1(C(=O)Nc2ccc(Cl)cc2OC(F)F)CCN(CC2(C(=O)O)CCOC2)CC1 (stereo not shown) [Compound 16, 3-[[4-[[4-chloro-2-(difluoromethoxy)phenyl]carbamoyl]-4-(5-isopropylpyrazol-1-yl)-1-piperidyl]methyl] tetrahydrofuran-3-carboxylic acid]
27 | 33.3 | CC(C)c1ccnn1C1(C(=O)Nc2ccc(Cl)cc2OC(F)F)CCN(CC2(C(=O)O)CCC(O)CC2)CC1 (stereo not shown) [Compound 34, 1-[[4-[[4-chloro-2-(difluoromethoxy)phenyl]carbamoyl]-4-(5-isopropylpyrazol-1-yl)-1-piperidyl]methyl]-4-hydroxy-cyclohexanecarboxylic acid]
28 | 121 | CCC(=O)N1CCC(CN2CCC(C(=O)Nc3ccc(Cl)cc3OC(F)F)(n3ncc(OC)c3C(C)C)CC2)(C(=O)O)CC1 [Compound 98, 4-[[4-[[4-chloro-2-(difluoromethoxy)phenyl]carbamoyl]-4-(5-isopropyl-4-methoxy-pyrazol-1-yl)-1-piperidyl]methyl]-1-propanoyl-piperidine-4-carboxylic acid]
